Results published in US20140199760A1, “PLANTS HAVING ENHANCED ABIOTIC STRESS RESISTANCE” (UNIVERSITY OF TORONTO, priority 2011, published 2014).

Legend:
[1] = system: soybean (OAC Wallace cultivar); assay: Drought treatment of soybean with BRZ added to soil; water loss per final shoot dry weight; type: in vivo
Text: (§1) FIG. 2. (A) Soil water content of wild-type Columbia (red), era1-2 (green), and line cyp85a2 (blue) during a drought treatment. […] Error bars represent standard error (n=8). (B) Water loss during the first 9 days of drought treatment divided by the final shoot dry weight (SDW) in wild-type Columbia, era1-2, and line cyp85a2. Error bars represent standard error (n=6). (C) Cold stress treatment. […]
(§2) Soil (20:20:20), prepared that day, was consistently weighed into pots (typically 140 g) and covered with a plastic wrap (GLAD Press'n Seal® Wrap) that had been punctured with a small hole in the centre. […] This was typically done by withholding water for 9 days after which shoot biomass was harvested and fresh weight was determined. Shoots were then dried at 60 C for 3 days and dry weight was determined. […]
(§3) The observation that a deficiency in endogenous BL in cyp85a2 enables drought resistance to Arabidopsis prompted the hypothesis that a similar mechanism might exist in other plant species, such as corn, soybean, and canola. […] Immediately […] the start of the experiment, daily measurements of water use were monitored to quantify the rate of water loss. […]

canola (Westar cultivar) = assay: Drought treatment of canola with BRZ added to soil; water loss per final shoot dry weight; type: in vivo
corn (B73 cultivar) = assay: Drought treatment of corn with BRZ added to soil; water loss per final shoot dry weight; type: in vivo
Text: as §1, §2, §3

bean crop = conditions: applied brassinolide; cited from earlier work
[2] = 10 μM final concentration in soil, root uptake, 4 day drought, vs untreated controls

Row | Compound | water use efficiency improved [1, 2] [%] | water loss per unit of shoot weight than that of the untreated controls ([1]; 10 μM final, drought, P<0.05) | water use efficiency improved (canola (Westar cultivar); [2]) [%] | water loss per unit of shoot weight than that of the untreated controls (canola (Westar cultivar); 10 μM final, drought, P<0.05) | water use efficiency improved (corn (B73 cultivar); 20 μM final concentration in soil, root uptake, 3.5 day drought, vs untreated controls) [%] | water loss per unit of shoot weight than that of the untreated controls (corn (B73 cultivar); 20 μM final, drought, P<0.05) | increase bean crop yield (bean crop)
1 | CC(O)(c1ccccc1)C(Cc1ccc(Cl)cc1)n1cncn1 (stereo not shown) [BRZ, Brassinazole] | 14 | significantly less | 15 | significantly less | 28 | significantly less | –
2 | CC(C)[C@H](C)[C@@H](O)[C@H](O)[C@@H](C)[C@H]1CC[C@H]2[C@@H]3COC(=O)[C@H]4C[C@H](O)[C@H](O)C[C@]4(C)[C@H]3CC[C@]12C [brassinolide, Brassinolide] | – | – | – | – | – | – | approximately 45%
